From US5075337A, “Alpha-deuterated 2-alkylaminoacetamide derivatives having reduced toxicity for treatment of CNS disorders” (G. D. Searle & Co., priority 1989, dated 1991)

How the values were obtained:
[1] = tested on: convulsions induced by 3-mercaptopropionic acid (3-MPA); assay: Prevention of chemically induced convulsions (3-MPA); assay type: in vivo, mouse (male Swiss albino); conditions: 100 mg/kg oral; 3-MPA 120 mg/kg subcutaneously; two groups of 5 mice
Protocol: (§1) The anticonvulsive effect of a compound of the invention was examined for clonic, tonic convulsions and death induced by different convulsant agents, namely, 3-mercaptopropionic acid (3-MPA 120 mg/kg subcutaneously) and bicuculline (BIC, 0.6 mg/kg intravenously), (W. van Dorsser, D. Barris, A. Cordi and J. Roba; Arch. Int. Pharmacodyn., 266: 239-249 (1983)). The compounds of the invention were administered orally at dosage of either 100 mg/kg (3-MPA) or 30 mg/kg (BIc) in a volume of 10 ml/kg, each to 5 mice, 30 minutes or 2 hours before convulsions were induced. Test mice used were male Swiss albino mice weighing 22-33 g, CDl, charles River, France, housed in group of 10 on a 12 hours light-dark cycle for at least 1 week before use, and fasted overnight. The number of mice protected against tonic convulsions and the number of dead mice were noted. The results are given as a score which represents the total number of mice protected by a dose of 100 mg/kg for two groups of 5 animals (3-MPA) or the percentage of mice protected by a dose of 30 mg/kg in 4 groups of 5 animals (BIC).

[2] = in words; literature; cited from earlier work
[3] = biological target: T1, monoamine oxidase enzyme (MAO-B) (Rattus norvegicus, UniProt P19643); assay: MAO-B enzyme inhibition assay (rat brain mitochondria, preincubation with inhibitor); assay type: biochemical, rat (Sprague Dawley)
T1 construct: 14C-beta-phenylethylamine substrate
T1 sequence (P19643 1-520): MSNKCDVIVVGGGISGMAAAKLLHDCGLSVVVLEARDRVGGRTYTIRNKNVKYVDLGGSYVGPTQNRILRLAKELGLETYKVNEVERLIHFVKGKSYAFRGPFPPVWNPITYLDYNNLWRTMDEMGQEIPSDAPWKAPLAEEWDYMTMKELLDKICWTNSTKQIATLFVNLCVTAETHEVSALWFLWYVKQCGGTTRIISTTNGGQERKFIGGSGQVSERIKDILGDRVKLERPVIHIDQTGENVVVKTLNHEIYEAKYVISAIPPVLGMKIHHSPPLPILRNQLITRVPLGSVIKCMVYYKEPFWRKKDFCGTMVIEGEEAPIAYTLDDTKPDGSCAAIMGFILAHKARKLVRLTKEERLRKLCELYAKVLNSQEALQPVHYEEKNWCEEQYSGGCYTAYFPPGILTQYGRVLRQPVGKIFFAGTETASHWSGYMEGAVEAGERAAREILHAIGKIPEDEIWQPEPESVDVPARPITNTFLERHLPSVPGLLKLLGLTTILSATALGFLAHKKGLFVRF
Protocol: Rat brain mitochondria were purified by a modification of the method of Dodd (Dodd Sprague Dawley rats of about 200 gr were decapitated and the brain was rapidly removed from the skull. Brains were homogenized with a glass-Teflon homogenizer in ice cold 0.32M sucrose (1/10, w/v). The homogenate was centrifuged at 2,400 g for 10 min at 4° C. The supernatant was centrifuged at 3,000 g for 10 min at 4° C. This last supernatant (8 ml) was poured into at tube containing 4 ml of 1.2M sucrose. The mitochondrial fraction is obtained after a centrifugation at 115,000 g for 30 min at 4° C. The mitochondrial pellet was suspended in 4 ml of 50 mM Na phosphate buffer and stored as aliquots at -30° C. […] Aliquots of the mitochondrial fraction were preincubated with ^2 H-milacemide or milacemide (200 μM in 50 mM Na phosphate buffer pH8) for different time periods, the samples were diluted with the incubation buffer, centrifuged and the pelleis were then used for the MAO assay. The enzymatic assay was performed in Eppendorf micro tubes (1.5 ml). The 100 μl total incubation volume contained 40 μl of 7 mM ^14 C-β-phenylethylamine, 20 μl of 50 mM Na phosphate buffer pH 8 and 40 μl of the pre-incubated mitochondrial fraction (0.2 mg protein/ml). The closed micro tubes were immediately shaken using a vortex and incubated during 4 min at 37° C. The reaclion was stopped by adding 20 μl of 1.5 N Hcl into the tube placed in an ice bath. The deaminated products were extracted with 600 μl of a toluene-ethyl acetate mixture (water saturated) and strongly mixed during 30 sec. The two layers were separated by centrifugation (10.000 g) for 10 min. Then, 400μL of the organic layer were added to 4 ml of lumagel in a scintillation counting vial. Blank values are obtained by incubating the mitochondrial fraction with Hcl 1.5M.

MAO-B enzyme = conditions: in words; literature; cited from earlier work
[4] = tested on: convulsions induced by bicuculline (BIC); assay: Prevention of chemically induced convulsions (bicuculline); assay type: in vivo, mouse (male Swiss albino); conditions: 30 mg/kg oral; bicuculline 0.6 mg/kg intravenously; 4 groups of 5 mice
Protocol: as §1

[5] = Comparative pharmacokinetic study, 1:1 mixture of milacemide and ^2 H-milacemide; assay type: in vivo, cynomolgus monkey (Macaca fascicularis); conditions: for ^2 H-milacemide/milacemide ratio, plasma AUC / ^2 H-milacemide/milacemide ratio, urine 24 hours excretion: 1:1 mixture
Protocol: A comparative pharmacokinetic study was conducted in the cynomolgus monkey (Macaca fascicularis) with a 1:1 mixture of milacemide and ^2 H-milacemide administered to 4 males and 4 females used in this study. One animal of each sex received the mixture either by the i.v. route at the dose of 30 mg/kg, or by the intragastric route at the dose of 30 mg/kg or 100 mg/kg, or 300 mg/kg. Plasma samples were drawn from the males and 0-24 hours urine samples were collected by the females. Preliminary determinations of milacemide in the urine samples were made by HPLC. […] The aqueous solution was made alkaline by the addition of 0.3 mL of 0 5M borate buffer at pH 9.3. Derivatization occurs by addition of 0.3 mL of a solution of fluorescamine in acetone (75 g/L), then 10 to 20 pL aliquots were injected on a 5 Bondapak C18 column eluted by a mixture of tetrahydrofuran, water and 0.5M borate buffer (2/6/2) adjusted to pH 8 by the addition of hydrochloric acid. […] Analysis of the ratio of unchanged deutero milacemide versus milacemide, was performed by GC-MS Milacemide and ^2 H-milacemide extracted from plasma aliquots were transformed into their respective N-trifluoroacetylated nitrile by reaction with trifluoroacetic anhydride. After separation from the impurities, on a 3% OV 17 column, the mass spectra were obtained in the chemical ionization mode by ammonia on a Riber 10-10 B mass spectrometer. […] Quantification was performed using selected ion monitoring (SIM) on the base peaks mentioned.

[6] = 200 μM, preincubation, pH 8, rat brain mitochondria, 50% inhibition
[7] = compared with milacemide, in words

Structure (SMILES) | 3-MPA (% Protected) [1] | brain bioavailability [2] | time to inhibit MAO-B activity by 50% [3, 6] | metabolism in the peripheral system by the MAO-B enzyme (MAO-B enzyme) | BIC (% Protected) [4] | time to reach the same level of inhibition (50%) of MAO-B [3, 6] | fold more time needed to reach the same level (50%) of MAO-B inhibition, ^2 H-milacemide vs milacemide ([3]; ^2 H-milacemide relative to milacemide) | ^2 H-milacemide/milacemide ratio, plasma AUC ([5]; 30 mg/kg i.g.) | ^2 H-milacemide/milacemide ratio, urine 24 hours excretion ([5]; 30 mg/kg i.g.) | ^2 H-milacemide/milacemide ratio, plasma AUC ([5]; 30 mg/kg i.v.) | ^2 H-milacemide/milacemide ratio, urine 24 hours excretion ([5]; 30 mg/kg i.v.) | ^2 H-milacemide/milacemide ratio, plasma AUC ([5]; 100 mg/kg i.g.) | ^2 H-milacemide/milacemide ratio, urine 24 hours excretion ([5]; 100 mg/kg i.g.) | ^2 H-milacemide/milacemide ratio, plasma AUC ([5]; 300 mg/kg i.g.) | ^2 H-milacemide/milacemide ratio, urine 24 hours excretion ([5]; 300 mg/kg i.g.) | first pass effect [5, 7] | half-life [5, 7] | metabolic clearance [5, 7]
CCCCCNCC(N)=O [milacemide, 2-n-pentylaminoacetamide, reference compound] | 20% | limited brain bioavailability | 30 min | metabolized in the peripheral system by the MAO-B enzyme | 65% | – | – | – | – | – | – | – | – | – | – | – | – | –
NNCCc1ccccc1 [phenelzine] | – | limiting its brain bioavailability | – | metabolized in the peripheral system by the MAO-B enzyme | – | – | – | – | – | – | – | – | – | – | – | – | – | –
[2H]C([2H])(CCCC)NCC(N)=O [^2 H-milacemide, 2-(1,1-dideuteropentylamino)acetamide] | 10% | – | – | – | 45% | at least 3 hours | 6 fold | 14.6 | 7.4 | 2.6 | 3.1 | 9.2 | 5.2 | 7.1 | 3.7 | reduced first pass effect | prolonged | decreased metabolic clearance
